From ChEMBL document CHEMBL3885881, “DrugMatrix”

Organism: Rattus norvegicus
Experiment: DrugMatrix - Regimen: Daily Repeat
Format: toxicity, organism-based, Sprague-Dawley
Design: regimen Daily Repeat, gender Male, age 6-8 weeks
Details: in vivo, po, route oral GAVAGE, vehicle .5 % CMC; for ABSOLUTE BASOPHIL / ABSOLUTE EOSINOPHIL / ABSOLUTE LYMPHOCYTE / ABSOLUTE MONOCYTE / ABSOLUTE SEGMENTED NEUTROPHIL / BASOPHIL / EOSINOPHIL / ERYTHROCYTE COUNT / HEMATOCRIT / HEMOGLOBIN / LEUKOCYTE COUNT / LYMPHOCYTE / MEAN CORPUSCULAR HEMOGLOBIN / MEAN CORPUSCULAR HEMOGLOBIN CONCENTRATION / MEAN CORPUSCULAR VOLUME / MONOCYTE / NEUTROPHIL / NUCLEATED RED BLOOD CELLS / PLATELET COUNT: tissue Blood; for ALANINE AMINOTRANSFERASE / ALBUMIN / ALKALINE PHOSPHATASE / ASPARTATE AMINOTRANSFERASE / BLOOD UREA NITROGEN / CARBON DIOXIDE / CHLORIDE / CHOLESTEROL / CREATINE PHOSPHOKINASE / CREATININE / GLUCOSE / LACTATE DEHYDROGENASE / LIPASE / PHOSPHORUS / POTASSIUM / SODIUM / TOTAL BILIRUBIN / TOTAL PROTEIN / URIC ACID: tissue Plasma
[1] = 0 mg/kg, 72 h, dose level Control, time 3 day
[2] = 0 mg/kg, 120 h, dose level Control, time 5 day
[3] = 16 mg/kg, 72 h, dose level Low, time 3 day

CCOC(=O)OC(C)OC1=C(C(=O)Nc2ccccn2)N(C)S(=O)(=O)c2ccccc21 (centres undefined) [AMPIROXICAM]
ABSOLUTE BASOPHIL [1]: 0 CELLS/uL | ABSOLUTE EOSINOPHIL [1]: 15.17 CELLS/uL | ABSOLUTE LYMPHOCYTE [1]: 10149.83 CELLS/uL | ABSOLUTE MONOCYTE [1]: 193.33 CELLS/uL | ABSOLUTE SEGMENTED NEUTROPHIL [1]: 1575 CELLS/uL | BASOPHIL [1]: 0% | EOSINOPHIL [1]: 0.17% | ERYTHROCYTE COUNT [1]: 5.53 x10E6/uL | HEMATOCRIT [1]: 34.7% | HEMOGLOBIN [1]: 12.78 G/DL | LEUKOCYTE COUNT [1]: 11.93 x10E3/uL | LYMPHOCYTE [1]: 85.5% | MEAN CORPUSCULAR HEMOGLOBIN [1]: 23.15 pg | MEAN CORPUSCULAR HEMOGLOBIN CONCENTRATION [1]: 36.9 G/DL | MEAN CORPUSCULAR VOLUME [1]: 62.82 fL | MONOCYTE [1]: 1.5% | NEUTROPHIL [1]: 12.83% | NUCLEATED RED BLOOD CELLS [1]: 0.5 /100WBC | PLATELET COUNT [1]: 994.17 x10E3/uL | ALANINE AMINOTRANSFERASE [1]: 48.17 u/L | ALBUMIN [1]: 4.37 G/DL | ALKALINE PHOSPHATASE [1]: 436.5 u/L | ASPARTATE AMINOTRANSFERASE [1]: 83.17 u/L | BLOOD UREA NITROGEN [1]: 14.67 mg/dL | CARBON DIOXIDE [1]: 30.83 mmol/L | CHLORIDE [1]: 99.17 MEQ/L | CHOLESTEROL [1]: 86.33 mg/dL | CREATINE PHOSPHOKINASE [1]: 243.33 u/L | CREATININE [1]: 0.25 mg/dL | GLUCOSE [1]: 158 mg/dL | LACTATE DEHYDROGENASE [1]: 262.33 u/L | LIPASE [1]: 11 u/L | PHOSPHORUS [1]: 12.07 mg/dL | POTASSIUM [1]: 6.52 MEQ/L | SODIUM [1]: 142.45 MEQ/L | TOTAL BILIRUBIN [1]: 0.17 mg/dL | TOTAL PROTEIN [1]: 6.25 G/DL | URIC ACID [1]: 1.42 mg/dL | ABSOLUTE BASOPHIL [2]: 0 CELLS/uL | ABSOLUTE EOSINOPHIL [2]: 0 CELLS/uL | ABSOLUTE LYMPHOCYTE [2]: 10076.67 CELLS/uL | ABSOLUTE MONOCYTE [2]: 124 CELLS/uL | ABSOLUTE SEGMENTED NEUTROPHIL [2]: 966 CELLS/uL | BASOPHIL [2]: 0% | EOSINOPHIL [2]: 0% | ERYTHROCYTE COUNT [2]: 5.57 x10E6/uL | HEMATOCRIT [2]: 33.37% | HEMOGLOBIN [2]: 12.73 G/DL | LEUKOCYTE COUNT [2]: 11.17 x10E3/uL | LYMPHOCYTE [2]: 90.33% | MEAN CORPUSCULAR HEMOGLOBIN [2]: 22.9 pg | MEAN CORPUSCULAR HEMOGLOBIN CONCENTRATION [2]: 38.18 G/DL | MEAN CORPUSCULAR VOLUME [2]: 59.97 fL | MONOCYTE [2]: 1% | NEUTROPHIL [2]: 8.67% | NUCLEATED RED BLOOD CELLS [2]: 0 /100WBC | PLATELET COUNT [2]: 1078 x10E3/uL | ALANINE AMINOTRANSFERASE [2]: 37.17 u/L | ALBUMIN [2]: 4.2 G/DL | ALKALINE PHOSPHATASE [2]: 322.17 u/L | ASPARTATE AMINOTRANSFERASE [2]: 67.67 u/L | BLOOD UREA NITROGEN [2]: 14 mg/dL | CARBON DIOXIDE [2]: 27.67 mmol/L | CHLORIDE [2]: 102.17 MEQ/L | CHOLESTEROL [2]: 67.67 mg/dL | CREATINE PHOSPHOKINASE [2]: 171.83 u/L | CREATININE [2]: 0.27 mg/dL | GLUCOSE [2]: 172 mg/dL | LACTATE DEHYDROGENASE [2]: 85.33 u/L | LIPASE [2]: 8.67 u/L | PHOSPHORUS [2]: 12 mg/dL | POTASSIUM [2]: 6.09 MEQ/L | SODIUM [2]: 144.82 MEQ/L | TOTAL BILIRUBIN [2]: 0.13 mg/dL | TOTAL PROTEIN [2]: 6.07 G/DL | URIC ACID [2]: 2.13 mg/dL | ABSOLUTE BASOPHIL [3]: 0 CELLS/uL | ABSOLUTE EOSINOPHIL [3]: 0 CELLS/uL | ABSOLUTE LYMPHOCYTE [3]: 13036.33 CELLS/uL | ABSOLUTE MONOCYTE [3]: 91.33 CELLS/uL | ABSOLUTE SEGMENTED NEUTROPHIL [3]: 1372.33 CELLS/uL | BASOPHIL [3]: 0% | EOSINOPHIL [3]: 0% | ERYTHROCYTE COUNT [3]: 5.36 x10E6/uL | HEMATOCRIT [3]: 33.57% | HEMOGLOBIN [3]: 12.5 G/DL | LEUKOCYTE COUNT [3]: 14.5 x10E3/uL | LYMPHOCYTE [3]: 89.33% | MEAN CORPUSCULAR HEMOGLOBIN [3]: 23.33 pg | MEAN CORPUSCULAR HEMOGLOBIN CONCENTRATION [3]: 37.23 G/DL | MEAN CORPUSCULAR VOLUME [3]: 62.67 fL | MONOCYTE [3]: 0.67% | NEUTROPHIL [3]: 10% | NUCLEATED RED BLOOD CELLS [3]: 0 /100WBC | PLATELET COUNT [3]: 1061.33 x10E3/uL | ALANINE AMINOTRANSFERASE [3]: 57.33 u/L | ALBUMIN [3]: 4.3 G/DL | ALKALINE PHOSPHATASE [3]: 431 u/L | ASPARTATE AMINOTRANSFERASE [3]: 100.67 u/L | BLOOD UREA NITROGEN [3]: 12.67 mg/dL | CARBON DIOXIDE [3]: 32.33 mmol/L | CHLORIDE [3]: 101.33 MEQ/L | CHOLESTEROL [3]: 86.33 mg/dL | CREATINE PHOSPHOKINASE [3]: 214.33 u/L | CREATININE [3]: 0.25 mg/dL | GLUCOSE [3]: 155.33 mg/dL | LACTATE DEHYDROGENASE [3]: 113.33 u/L | LIPASE [3]: 11.67 u/L | PHOSPHORUS [3]: 11.83 mg/dL | POTASSIUM [3]: 6.74 MEQ/L | SODIUM [3]: 145.43 MEQ/L | TOTAL BILIRUBIN [3]: 0.13 mg/dL | TOTAL PROTEIN [3]: 6.13 G/DL | URIC ACID [3]: 1.73 mg/dL
